Some test systems named below: NCI-H522 lung; MOLT-4 leukemia; M14 melanoma; CCRF-CEM leukemia; SK-MEL-5 melanoma; OVCAR-4 ovarian; SK-MEL-28 melanoma; HOP-62 NSCLC; IGROV1 ovarian; SR leukemia.
Common to all, as to assay: NCI tumour cell line growth inhibition, 48 h

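Grown in 96-well plates, cells were treated for 48 hours with each compound at five concentrations. Insufficient inhibition: endpoint recorded as highest concentration tested. GI50 = concentration required for 50% inhibition of growth. Definition used: TGI = concentration required for complete inhibition of growth.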

For `CC1SC2(CCCCC2)N(NC(=O)c2[nH]c3ccc(F)cc3c2-c2ccccc2)C1=O` (stereo unspecified), the GI50 is 54.4 µM with NCI-H522 lung; above 100 µM in the test on MOLT-4 leukemia; above 100 µM in the test on M14 melanoma; above 100 µM in the test on CCRF-CEM leukemia; above 100 µM in the test with SK-MEL-5 melanoma; 41.6 µM with OVCAR-4 ovarian. Moreover, the GI50 was above 100 µM in the test with SK-MEL-28 melanoma, 19.7 µM with HOP-62 NSCLC and 16 µM in the test with IGROV1 ovarian. Besides, the TGI in the test with NCI-H522 lung, in the test on MOLT-4 leukemia, in the test on M14 melanoma, in the test on CCRF-CEM leukemia, in the test on SK-MEL-5 melanoma and in the test with OVCAR-4 ovarian was above 100 µM each time. In addition, the figures for the TGI in the test with SK-MEL-28 melanoma, in the test with HOP-62 NSCLC and in the test with IGROV1 ovarian were above 100 µM, 60.9 µM and 97.3 µM, respectively.

For `CN1C(=O)C23CC4=CC=CC(O)C4N2C(=O)C1(CO)SS3` (stereo unspecified), the TGI was found to be 0.0996 µM in the test on SR leukemia; 0.338 µM in the test on NCI-H522 lung; 0.447 µM in the test on MOLT-4 leukemia; 0.295 µM in the test on M14 melanoma; 0.38 µM with SK-MEL-5 melanoma; 0.524 µM in the test on OVCAR-4 ovarian. The figures for the TGI with SK-MEL-28 melanoma, in the test on HOP-62 NSCLC and with IGROV1 ovarian were 2.26 µM, 0.322 µM and 0.297 µM, respectively.

`C=C(C)[C@@H]1CCC[C@]2(C(=O)O)CC[C@]3(C)[C@@H](CC[C@@H]4[C@@]5(C)C/C(=C/c6ccncc6)C(=O)C(C)(C)[C@@H]5CC[C@]43C)[C@@H]12`: the GI50 in the test on NCI-H522 lung was 2.74 µM; in the test with MOLT-4 leukemia, 2.07 µM; with M14 melanoma it was 2.24 µM; in the test with CCRF-CEM leukemia it was 3.16 µM; in the test with SK-MEL-5 melanoma, 1.96 µM; in the test on OVCAR-4 ovarian, 4.31 µM. Also, the GI50 was 2.1 µM in the test on SK-MEL-28 melanoma, 2.78 µM in the test with HOP-62 NSCLC and 3.02 µM with IGROV1 ovarian. The TGI is 9.14 µM in the test on NCI-H522 lung; above 100 µM with MOLT-4 leukemia; 5.85 µM with M14 melanoma; above 100 µM in the test with CCRF-CEM leukemia; 4.51 µM in the test on SK-MEL-5 melanoma; 67.4 µM with OVCAR-4 ovarian. Moreover, the TGI came out at 4.58 µM with SK-MEL-28 melanoma, 8.28 µM with HOP-62 NSCLC and 9.31 µM in the test on IGROV1 ovarian.

As for `COc1ccc(S(=O)(=O)NCCNc2nccc(-c3c(-c4ccccc4)nc4sccn34)n2)cc1`, the GI50 is 0.784 µM in the test on SR leukemia; 4.64 µM in the test with NCI-H522 lung; 2.77 µM in the test on M14 melanoma; 3.62 µM with OVCAR-4 ovarian; 5.79 µM in the test with SK-MEL-28 melanoma; 15.3 µM with HOP-62 NSCLC. Also, the GI50 with IGROV1 ovarian is 2.13 µM. Besides, the TGI with SR leukemia, with NCI-H522 lung, in the test with M14 melanoma, in the test on OVCAR-4 ovarian, with SK-MEL-28 melanoma and with HOP-62 NSCLC was above 100 µM in each case. In the test with IGROV1 ovarian, this compound yielded a TGI above 100 µM.

In the case of `COc1cc(C(=O)/C=C/c2c(C(F)(F)F)nc3sccn23)cc(OC)c1OC`, the GI50 with SR leukemia was 0.54 µM; in the test with NCI-H522 lung, 2.03 µM; with MOLT-4 leukemia, 1.92 µM; in the test on CCRF-CEM leukemia, 1.24 µM; in the test with SK-MEL-5 melanoma, 1.59 µM; in the test on OVCAR-4 ovarian, 3.05 µM. For the same compound, the GI50 was 1.69 µM with SK-MEL-28 melanoma, 1.93 µM in the test on HOP-62 NSCLC and 2.66 µM in the test with IGROV1 ovarian. In addition, the TGI in the test with SR leukemia amounted to 3.61 µM; in the test with NCI-H522 lung it was 4.91 µM; with MOLT-4 leukemia it was 5.81 µM; in the test with CCRF-CEM leukemia it was 8.34 µM; in the test with SK-MEL-5 melanoma, 2.96 µM; with OVCAR-4 ovarian, 17.6 µM. In addition, the TGI in the test with SK-MEL-28 melanoma was 3.1 µM; with HOP-62 NSCLC, 3.92 µM; in the test with IGROV1 ovarian it was 61.4 µM.

As to `CC(=O)N[C@@H]1CCC[C@H](C(=O)Nc2cc(-c3cnn4c3CC(C)(C)C4)c(Cl)cn2)C1`, the GI50 in the test on SR leukemia is below 0.01 µM; in the test on NCI-H522 lung, 0.013 µM; in the test on MOLT-4 leukemia it was below 0.0117 µM; in the test with CCRF-CEM leukemia, below 0.01 µM; in the test with SK-MEL-5 melanoma it was below 0.01 µM; with OVCAR-4 ovarian, 0.0235 µM. In addition, the values for the GI50 in the test on SK-MEL-28 melanoma, in the test on HOP-62 NSCLC and in the test on IGROV1 ovarian were below 0.0133 µM, below 0.0113 µM and below 0.01 µM, respectively. The TGI in the test with SR leukemia is 1.21 µM; with NCI-H522 lung, 0.0588 µM; in the test with MOLT-4 leukemia, 0.13 µM; in the test on CCRF-CEM leukemia, 0.315 µM; in the test on SK-MEL-5 melanoma it was below 0.0406 µM; in the test on OVCAR-4 ovarian, 25.4 µM. Moreover, the TGI was 0.342 µM in the test on SK-MEL-28 melanoma, above 100 µM in the test on HOP-62 NSCLC and above 100 µM with IGROV1 ovarian.

For `Cc1cccc(CC(C)(C)C)c1NC(=O)C(=O)C(C(=O)c1ccc2ccccc2c1)C1OC(=O)c2ccccc21` (stereo unspecified), the TGI in the test on SR leukemia is above 100 µM; with NCI-H522 lung it was 26.7 µM; with M14 melanoma, above 100 µM; in the test with SK-MEL-5 melanoma, 26.7 µM; in the test with OVCAR-4 ovarian, above 100 µM; in the test with SK-MEL-28 melanoma, 18.8 µM. In addition, the TGI in the test with HOP-62 NSCLC turned out to be 43.2 µM; in the test on IGROV1 ovarian, 46.8 µM.

For the compound `O=[N+]([O-])O.[NH-]C1CCCCC1[NH-].[NH-]C1CCCCC1[NH-].[NH-]C1CCCCC1[NH-].[OH-].[OH-].[OH-].[Pt+4].[Pt+4].[Pt+4]` (stereo unspecified), the GI50 is 0.212 µM with NCI-H522 lung; 0.0283 µM in the test on MOLT-4 leukemia; 0.918 µM in the test on M14 melanoma; 0.193 µM in the test on CCRF-CEM leukemia; 0.0363 µM in the test on SK-MEL-5 melanoma; 1.43 µM in the test with SK-MEL-28 melanoma. Further, the GI50 in the test on HOP-62 NSCLC is 2.23 µM; in the test with IGROV1 ovarian it was 0.258 µM. The TGI in the test on NCI-H522 lung is 2.98 µM; in the test on MOLT-4 leukemia, 2.2 µM; in the test on M14 melanoma, 11.9 µM; in the test with CCRF-CEM leukemia, 19.2 µM; with SK-MEL-5 melanoma it was 1 µM; in the test on OVCAR-4 ovarian, above 100 µM. For the same compound, the TGI in the test on SK-MEL-28 melanoma is 43.2 µM; in the test with HOP-62 NSCLC, above 57.8 µM; in the test on IGROV1 ovarian, 19.4 µM.

Regarding `CCN1CC2(C)CC[C@@H](OC)C34[C@@H]2[C@H](OC(C)=O)C2(OCO[C@@]25C[C@H](OC)C2C[C@]3(O)[C@@H]5[C@H]2O)[C@H]14`, the TGI with SR leukemia, in the test with NCI-H522 lung, in the test with M14 melanoma, with OVCAR-4 ovarian, in the test with SK-MEL-28 melanoma and in the test on HOP-62 NSCLC was above 100 µM throughout.

Source of the values: PubChem BioAssay (NCI).
